The results in this text go back to US10273217B2, “Triazole derivatives” (Hoffmann-La Roche Inc., priority 2015, dated 2019).

Molecules are shown by their SMILES.

One data set concerns the target T1, human EAAT3 (Homo sapiens, UniProt P43005).
T1 construct: expressed in transfected cells
T1 sequence (P43005 1-524): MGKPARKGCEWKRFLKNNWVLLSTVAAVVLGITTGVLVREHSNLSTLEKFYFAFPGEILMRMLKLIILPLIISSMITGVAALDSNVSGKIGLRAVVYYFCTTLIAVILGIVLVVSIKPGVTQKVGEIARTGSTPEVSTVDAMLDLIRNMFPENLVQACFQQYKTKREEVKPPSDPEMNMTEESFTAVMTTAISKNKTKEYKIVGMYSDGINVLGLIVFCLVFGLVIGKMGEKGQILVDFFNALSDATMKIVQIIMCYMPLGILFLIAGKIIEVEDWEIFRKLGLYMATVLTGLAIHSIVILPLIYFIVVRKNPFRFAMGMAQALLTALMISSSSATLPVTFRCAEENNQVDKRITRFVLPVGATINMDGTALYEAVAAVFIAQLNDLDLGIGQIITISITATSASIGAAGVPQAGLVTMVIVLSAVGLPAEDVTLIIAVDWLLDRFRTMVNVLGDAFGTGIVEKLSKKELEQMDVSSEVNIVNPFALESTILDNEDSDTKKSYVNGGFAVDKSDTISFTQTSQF
Put plainly: FLIPR Membrane Potential (FMP) assay, antagonist potency at human EAAT3. As to conditions: HEK-293 cells stably expressing human EAAT3; L-glutamate as agonist at EC80; Kb from IC50 by Cheng-Prusoff equation. It is filed as cell-based. As for the experimental part: The FLIPR Membrane Potential (FMP) Assay
HEK-293 cells stably expressing human EAAT3 were seeded at 55 000 cells/well in growth medium (DMEM glutamate free (Invitrogen 11960-044), 1% Pen Strep (10 ml/l GIBCO BRL N°15140-023), 10% FCS non dialysed heat inactivated, 5 mg/l puromycin) in poly-D-lysine treated 96-well black microtiter plates with clear-bottom. After 24 h, the growth medium was removed and 100 μl/well of Krebs buffer (140 mM NaCl, 4.7 mM KCl, 2.5 mM CaCl2, 1.2 mM MgCl2, 11 mM HEPES, 10 mM D-glucose, pH=7.4) added. The cells were then loaded by adding 100 μl/well FMP assay dye (FLIPR Membrane Potential assay reagent, Molecular Devices). The 96-well plates were then incubated at 37° C. for 1 h. The depolarization of the cells will cause more dye to enter in the cells, where it will bind to intracellular proteins and lipids and cause an increase in the fluorescence signal. Antagonist potency at human EAAT3 was determined by using L-glutamate as agonist at a concentration which gives 80% of the maximum response. The antagonists were applied 15 min before the application of the agonist L-glutamate. The assays were performed at room temperature and measurements done by using a Fluorometric Imaging Plate Reader (FLIPR, Molecular Devices) and filter #2. Responses were measured as peak increase in fluorescence minus basal (i.e. fluorescence without addition of L-glutamate). Kb was determined using the Cheng-Prusoff equation Kb=IC50/[1+(A/EC50)], where IC50 is the concentration of the antagonist producing 50% inhibition, A is the concentration of the agonist against which the IC50 is being determined (at EC80) and EC50 is the concentration of the agonist producing 50% […].

In the case of `CC1(NC(=O)c2cc(-c3ccc(Cl)cc3)cc(-n3cnnc3CO)c2)CCS(=O)(=O)C1` (racemic) [Example 36, (RS)-3-(4-Chlorophenyl)-5-[3-(hydroxymethyl)-1,2,4-triazol-4-yl]-N-(3-methyl-1,1-dioxothiolan-3-yl)-benzamide], the melting point (in general, the temperature, or range, at which the solid turns liquid) came out at 161.5 °C. Also, at human EAAT3, the antagonist equilibrium constant (Kb) – broadly, the affinity of an antagonist, worked out from how it opposes an agonist – came to 1.57 µM.

`CCC(C)(C)NC(=O)c1cc(-c2ccc(F)cc2)cc(-n2cnnc2)c1` [Example 1, 3-(4-Fluorophenyl)-N-(2-methylbutan-2-yl)-5-(1,2,4-triazol-4-yl)-benzamide] showed a melting point of 212 °C. The molecule also returned an antagonist dissociation constant (Kb) at human EAAT3 of 0.088 µM.

For the molecule `CC(C)(C)NC(=O)c1cc(-c2ccc(F)cc2)cc(-n2cnnc2)c1` [Example 2, N-tert-Butyl-3-(4-fluorophenyl)-5-(1,2,4-triazol-4-yl)-benzamide], the melting point came to 204 °C. At human EAAT3, this molecule yielded a Kb of 0.29 µM.

For the molecule `CC(C)(NC(=O)c1cc(-c2ccc(F)cc2)cc(-n2cnnc2)c1)C1CC1` [Example 3, N-(2-Cyclopropylpropan-2-yl)-3-(4-fluorophenyl)-5-(1,2,4-triazol-4-yl)-benzamide], the melting point was found to be 135.5 °C. On human EAAT3, this molecule yielded a Kb of 0.39 µM.

As to `CC(C)(NC(=O)c1cc(-c2ccc(F)cc2)cc(-n2cnnc2)c1)C(F)(F)F` [Example 4, 3-(4-Fluorophenyl)-5-(1,2,4-triazol-4-yl)-N-(1,1,1-trifluoro-2-methylpropan-2-yl)-benzamide], the melting point was determined as 147 °C. The Kb on human EAAT3 came to 0.25 µM.

Consider `Cc1nncn1-c1cc(C(=O)NC(C)(C)C)cc(-c2ccc(F)cc2)c1` [Example 5, N-tert-Butyl-3-(4-fluorophenyl)-5-(3-methyl-1,2,4-triazol-4-yl)-benzamide], for which the melting point stood at 235.5 °C. Also, the Kb on human EAAT3 amounted to 0.16 µM.

Molecule `Cc1nncn1-c1cc(C(=O)NC(C)(C)C)cc(-c2ccc(Cl)cc2)c1` [Example 6, N-tert-Butyl-3-(4-chlorophenyl)-5-(3-methyl-1,2,4-triazol-4-yl)-benzamide] returned a melting point of 241 °C. In addition, the Kb at human EAAT3 was 0.076 µM.

Consider `Cc1nncn1-c1cc(C(=O)NC(C)(C)C)cc(-c2ccc(C(F)(F)F)cc2)c1` [Example 7, N-tert-Butyl-3-(3-methyl-1,2,4-triazol-4-yl)-5-[4-(trifluoromethyl)-phenyl]-benzamide], for which the melting point came to 225.5 °C. At human EAAT3, this molecule returned a Kb of 0.13 µM.

In turn, `CC(C)(C)NC(=O)c1cc(-c2ccc(F)cc2)cc(-n2cnnc2C(C)(C)C)c1` [Example 8, N-tert-Butyl-3-(3-tert-butyl-1,2,4-triazol-4-yl)-5-(4-fluorophenyl)-benzamide] gave a melting point of 279 °C. Besides, the antagonist dissociation constant (Kb) at human EAAT3 worked out at 0.19 µM.

On to `CC(C)(C)NC(=O)c1cc(-c2ccc(Cl)cc2)cc(-n2cnnc2C(C)(C)C)c1` [Example 9, N-tert-Butyl-3-(3-tert-butyl-1,2,4-triazol-4-yl)-5-(4-chlorophenyl)-benzamide], for which the melting point is 292.5 °C. On human EAAT3, this molecule yielded a Kb of 0.18 µM.

With `CC(C)(C)NC(=O)c1cc(-c2ccc(C(F)(F)F)cc2)cc(-n2cnnc2C(C)(C)C)c1` [Example 10, N-tert-Butyl-3-(3-tert-butyl-1,2,4-triazol-4-yl)-5-[4-(trifluoromethyl)-phenyl]-benzamide], the melting point was found to be 280.5 °C. Moreover, on human EAAT3, the antagonist equilibrium constant (Kb) is 0.16 µM.

`CC(C)(C)c1nncn1-c1cc(C(=O)NC(C)(C)C2CC2)cc(-c2ccc(C(F)(F)F)cc2)c1` [Example 11, 3-(3-tert-Butyl-1,2,4-triazol-4-yl)-N-(2-cyclopropylpropan-2-yl)-5-[4-(trifluoromethyl)-phenyl]-benzamide] showed a melting point of 242.5 °C. Also, the Kb at human EAAT3 was determined as 0.18 µM.

`CC(C)(C)c1nncn1-c1cc(C(=O)NC(C)(C)C2CC2)cc(-c2ccc(F)cc2)c1` [Example 12, 3-(3-tert-Butyl-1,2,4-triazol-4-yl)-N-(2-cyclopropylpropan-2-yl)-5-(4-fluorophenyl)-benzamide] came in with a melting point of 111 °C. The molecule further displayed an antagonist dissociation constant (Kb) on human EAAT3 of 0.15 µM.

The molecule `CC(C)(C)c1nncn1-c1cc(C(=O)NC(C)(C)C2CC2)cc(-c2ccc(Cl)cc2)c1` [Example 13, 3-(3-tert-Butyl-1,2,4-triazol-4-yl)-5-(4-chlorophenyl)-N-(2-cyclopropylpropan-2-yl)-benzamide] registered a melting point of 136.5 °C. In addition, the Kb at human EAAT3 was 0.29 µM.

As for `CC(C)c1nncn1-c1cc(C(=O)NC(C)(C)C)cc(-c2ccc(F)cc2)c1` [Example 14, N-tert-Butyl-3-(4-fluorophenyl)-5-(3-propan-2-yl-1,2,4-triazol-4-yl)-benzamide], the melting point was 240.5 °C. On human EAAT3, this molecule registered a Kb of 0.075 µM.

The molecule `CC(C)c1nncn1-c1cc(C(=O)NC(C)(C)C)cc(-c2ccc(Cl)cc2)c1` [Example 15, N-tert-Butyl-3-(4-chlorophenyl)-5-(3-propan-2-yl-1,2,4-triazol-4-yl)-benzamide] gave a melting point of 239.5 °C. The molecule also registered a Kb on human EAAT3 of 0.075 µM.

On to `CC(C)c1nncn1-c1cc(C(=O)NC(C)(C)C2CC2)cc(-c2ccc(F)cc2)c1` [Example 16, N-(2-Cyclopropylpropan-2-yl)-3-(4-fluorophenyl)-5-(3-propan-2-yl-1,2,4-triazol-4-yl)-benzamide], for which the melting point was determined as 101 °C. The same molecule had an antagonist dissociation constant (Kb) at human EAAT3 of 0.1 µM.

Take `CC(C)c1nncn1-c1cc(C(=O)NC(C)(C)C2CC2)cc(-c2ccc(Cl)cc2)c1` [Example 17, 3-(4-Chlorophenyl)-N-(2-cyclopropyl-propan-2-yl)-5-(3-propan-2-yl-1,2,4-triazol-4-yl)-benzamide]: the melting point came out at 105 °C. Also, at human EAAT3, the antagonist dissociation constant (Kb) is 0.19 µM.

The molecule `CC(C)c1nncn1-c1cc(C(=O)NC(C)(C)C)cc(-c2ccc(C(F)(F)F)cc2)c1` [Example 18, N-tert-Butyl-3-(3-propan-2-yl-1,2,4-triazol-4-yl)-5-[4-(trifluoromethyl)-phenyl]-benzamide] registered a melting point of 126 °C. The same molecule returned an antagonist dissociation constant (Kb) on human EAAT3 of 0.13 µM.

As for `CC(C)c1nncn1-c1cc(C(=O)NC(C)(C)C2CC2)cc(-c2ccc(C(F)(F)F)cc2)c1` [Example 19, N-(2-Cyclopropyl-propan-2-yl)-3-(3-propan-2-yl-1,2,4-triazol-4-yl)-5-[4-(trifluoromethyl)-phenyl]-benzamide], the melting point was 100 °C. The same molecule yielded a Kb at human EAAT3 of 0.22 µM.

Take `CC(C)c1nncn1-c1cc(C(=O)NC(C)(C)CO)cc(-c2ccc(F)cc2)c1` [Example 20, 3-(4-Fluorophenyl)-N-(1-hydroxy-2-methylpropan-2-yl)-5-(3-propan-2-yl-1,2,4-triazol-4-yl)-benzamide]: the melting point was 171.5 °C. Besides, the antagonist dissociation constant (Kb) at human EAAT3 stood at 0.39 µM.

Take `CC(C)c1nncn1-c1cc(C(=O)NC(C)(C)CO)cc(-c2ccc(Cl)cc2)c1` [Example 21, 3-(4-Chlorophenyl)-N-(1-hydroxy-2-methylpropan-2-yl)-5-(3-propan-2-yl-1,2,4-triazol-4-yl)-benzamide]: the melting point is 180 °C. Also, the Kb at human EAAT3 is 0.23 µM.

Molecule `CC(C)c1nncn1-c1cc(C(=O)NC(C)(C)CO)cc(-c2ccc(C(F)(F)F)cc2)c1` [Example 22, N-(1-hydroxy-2-methylpropan-2-yl)-3-(3-propan-2-yl-1,2,4-triazol-4-yl)-5-[4-(trifluoromethyl)-phenyl]-benzamide] came in with a melting point of 214 °C. Further, the Kb on human EAAT3 worked out at 0.33 µM.

On to `CCC(C)(C)NC(=O)c1cc(-c2ccc(C(F)(F)F)cc2)cc(-n2cnnc2C(C)C)c1` [Example 23, N-(2-Methylbutan-2-yl)-3-(3-propan-2-yl-1,2,4-triazol-4-yl)-5-[4-(trifluoromethyl)-phenyl]-benzamide], for which the melting point came to 104 °C. The antagonist equilibrium constant (Kb) on human EAAT3 came out at 0.094 µM.

For `CCC(C)(C)NC(=O)c1cc(-c2ccc(F)cc2)cc(-n2cnnc2C(C)C)c1` [Example 24, 3-(4-Fluorophenyl)-N-(2-methylbutan-2-yl)-5-(3-propan-2-yl-1,2,4-triazol-4-yl)-benzamide], the melting point was determined as 95 °C. The same molecule gave a Kb at human EAAT3 of 0.054 µM.
